Measurements as given in patent US20110166149A1, “PTERIDINE DERIVATIVES FOR TREATING RESPIRATORY DISEASE” (TARGEGEN INC., priority 2008, published 2011).
Read-outs that look alike come from different tables or passages of the source.

How the values were obtained:
[1] = Solubility of Compound A; type: physicochemical
[2] = Estimated lung exposure level calculated from respirable dose (Example 1); conditions: 30 minute exposure assumed, mouse
Procedure: Estimated lung exposure levels were calculated based on the following assumptions: respirable dose collected from 7 stage impactor; 30 minute exposure time; mouse minute volume of 23 mL/min; mouse weight of 25 g; mouse lung weight of 250 mg (1% of body weight).

[3] = test system: ovalbumin (OVA) challenged mice; test: Mouse airway resistance, methacholine challenge (Example 4); type: in vivo; conditions: aerosolized formulations, FIG. 4
Procedure: A series of compositions for pulmonary delivery were prepared by first preparing a 20% suspension of compound A in a 5% tyloxapol solution in water. Particle size reduction was achieved using a colloid mill (magicLAB®, MK module, for 6 hours @ 12,000 rpm, while maintaining a temperature below 50° C.). Samples at 4% compound A were prepared by dilution with DI water. A 0.4% compound A suspension in 0.1% tyloxapol solution was made by dilution with SWFI (6.02 g of the 20% suspension was QS to 30.23 g with SWFI) and the following suspensions were also prepared: • […] in 0.01% tyloxapol solution: 2.52 g of a 0.4% compound A suspension was diluted to 100 g with SWFI water. • 0.01% compound A suspension in 0.01% tyloxapol solution: 10 g of a 0.1% compound A suspension was diluted to 100 g with SWFI water. • 0.001% compound A suspension in 0.01% tyloxapol solution 3: 10 g of a 0.1% compound A suspension was diluted to 100 g with SWFI water. […] Airway resistance in the model is induced via a methacholine challenge. Airway resistance is both a diagnostic and a hallmark of respiratory diseases such as asthma and COPD and the reduction of airway resistance is considered a beneficial outcome.

[4] = Stability / precipitation of compound A solutions at pH ~3 (Examples 5, 6); type: physicochemical
Procedure: 36 mg of compound A was dissolved with the aid of 0.5 N HCl (QS to 1 g) under mixing and heat. 200 μL of this solution was mixed using a sonicator bath, if necessary with a separately prepared solution containing 1.8 mg of a 0.02% tyloxapol/2% PVP 90F and 34 μL of a 2 N NaOH, to give a final concentration of ˜3.3 mg/mL of compound A at a pH of ˜3. […] 200 μL of the above solution was mixed using a sonicator bath, if necessary with a solution containing 1.8 mg of a 0.02% tyloxapol/2% PVP 90F and 10 μL of a 2 N NaOH, to give a final concentration of ˜5 mg/mL of compound A at a pH of ˜3. This solution will start precipitating ˜20 min.

Nc1nc(N)c2nc(-c3cccc(O)c3)c(-c3cccc(O)c3)nc2n1 [Compound A, 6,7-bis(3-hydroxyphenyl)-pteridine-2,4-diamine]
dissolution in organic solvents ([1]; DMSO and selected aprotic solvents with high dielectric constants): readily dissolves
solubility ([1]; between pH of 3 and 9): negligible solubility
solubility ([1]; water, aqueous buffer, pH below 2 and above 10, read-out: water solubility): > 20 mg/mL
Estimated lung conc. ([2]; 0.004% Compound A suspension): 0.1 µg/g
Estimated lung conc. ([2]; 0.04% Compound A suspension): 1.4 µg/g
Estimated lung conc. ([2]; 0.4% Compound A suspension): 11 µg/g
Estimated lung conc. ([2]; 4% Compound A suspension): 75 µg/g
airway resistance [3]: reduced airway resistance
solution stability ([4]; ~3.3 mg/mL, pH ~3, tyloxapol/PVP 90F (Example 5)): stable for more than an hour
time to start of precipitation ([4]; ~5 mg/mL, pH ~3, tyloxapol/PVP 90F (Example 6)): ~20 min
